Activity calls are given as the source filed them. No cut-off for these calls is given here.
What was measured:
[1] = Tmax in ICR mouse at 3 mg/kg, po measured upto 24 hrs by LC-MS analysis; format: ADME, organism-based; conditions: in vivo
BaF3 [2] = experiment: Antiproliferative activity against mouse BaF3/TEL-AXL cells incubated for 72 hrs by SRB or CCK8 assay; conditions: BaF3, 72 h
[3] = Oral availability in ICR mouse at 3 mg/kg measured upto 24 hrs by LC-MS analysis; format: ADME, organism-based; conditions: in vivo
[4] = target: T1, Hepatocyte growth factor receptor (Homo sapiens, UniProt P08581); experiment: Inhibition of recombinant human MET (974 to end residues) using KKKGQEEEYVFIE as substrate incubated for 40 mins in presence of [gamma-33ATP by scintillation counting based radiometry assay
T1 sequence (P08581 whole entry): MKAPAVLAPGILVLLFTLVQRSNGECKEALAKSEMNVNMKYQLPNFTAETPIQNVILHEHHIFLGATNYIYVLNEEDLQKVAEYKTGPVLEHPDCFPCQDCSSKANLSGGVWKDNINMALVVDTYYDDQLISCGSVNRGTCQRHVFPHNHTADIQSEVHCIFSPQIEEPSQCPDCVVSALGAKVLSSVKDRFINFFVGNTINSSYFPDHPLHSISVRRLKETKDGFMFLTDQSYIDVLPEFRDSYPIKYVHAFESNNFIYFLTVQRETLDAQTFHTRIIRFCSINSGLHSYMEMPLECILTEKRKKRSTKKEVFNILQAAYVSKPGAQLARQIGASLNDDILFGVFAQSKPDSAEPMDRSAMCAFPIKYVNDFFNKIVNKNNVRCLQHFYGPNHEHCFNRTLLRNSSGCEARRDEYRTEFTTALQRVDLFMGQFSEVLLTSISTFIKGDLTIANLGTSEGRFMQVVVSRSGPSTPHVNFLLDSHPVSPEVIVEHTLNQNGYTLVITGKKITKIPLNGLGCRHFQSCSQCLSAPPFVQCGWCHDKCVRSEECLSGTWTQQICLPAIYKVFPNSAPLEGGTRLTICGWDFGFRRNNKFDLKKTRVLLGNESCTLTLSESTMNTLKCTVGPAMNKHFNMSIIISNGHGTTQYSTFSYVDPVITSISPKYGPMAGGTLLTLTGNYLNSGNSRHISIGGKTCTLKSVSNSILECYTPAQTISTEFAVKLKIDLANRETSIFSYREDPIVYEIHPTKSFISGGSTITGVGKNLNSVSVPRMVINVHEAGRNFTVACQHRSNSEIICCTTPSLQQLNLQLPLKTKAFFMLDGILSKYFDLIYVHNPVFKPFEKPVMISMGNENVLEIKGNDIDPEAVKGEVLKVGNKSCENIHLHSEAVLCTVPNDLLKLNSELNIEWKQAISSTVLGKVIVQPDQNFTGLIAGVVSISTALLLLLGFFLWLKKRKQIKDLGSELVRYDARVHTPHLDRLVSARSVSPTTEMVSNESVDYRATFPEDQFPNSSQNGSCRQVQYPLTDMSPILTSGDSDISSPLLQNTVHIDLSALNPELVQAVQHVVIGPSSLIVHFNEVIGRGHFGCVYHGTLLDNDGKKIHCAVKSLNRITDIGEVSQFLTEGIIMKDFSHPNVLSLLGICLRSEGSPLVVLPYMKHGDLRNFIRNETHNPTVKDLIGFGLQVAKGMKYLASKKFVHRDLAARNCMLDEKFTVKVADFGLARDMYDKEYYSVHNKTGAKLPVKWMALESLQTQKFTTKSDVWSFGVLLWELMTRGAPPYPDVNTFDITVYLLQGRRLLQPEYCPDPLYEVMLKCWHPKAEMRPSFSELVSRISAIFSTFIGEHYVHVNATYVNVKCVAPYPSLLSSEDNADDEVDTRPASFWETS

[5] = target: Vascular endothelial growth factor receptor 1 (Homo sapiens, UniProt P17948); experiment: Inhibition of recombinant human FLT1 (783 to end residues) using KKKSPGEYVNIEFG as substrate incubated for 40 mins in presence of [gamma-33ATP] by scintillation counting based radiometry assay
[6] = target: Platelet-derived growth factor receptor alpha (Homo sapiens, UniProt P16234); experiment: Inhibition of human PDGFRalpha (550 to end residues) using poly(Glu, Tyr) 4:1 as substrate measured after 40 mins in presence of [gamma33P]ATP by scintillation counting based radiometry assay
Platelet-derived growth factor receptor alpha, sequence (P16234 whole entry): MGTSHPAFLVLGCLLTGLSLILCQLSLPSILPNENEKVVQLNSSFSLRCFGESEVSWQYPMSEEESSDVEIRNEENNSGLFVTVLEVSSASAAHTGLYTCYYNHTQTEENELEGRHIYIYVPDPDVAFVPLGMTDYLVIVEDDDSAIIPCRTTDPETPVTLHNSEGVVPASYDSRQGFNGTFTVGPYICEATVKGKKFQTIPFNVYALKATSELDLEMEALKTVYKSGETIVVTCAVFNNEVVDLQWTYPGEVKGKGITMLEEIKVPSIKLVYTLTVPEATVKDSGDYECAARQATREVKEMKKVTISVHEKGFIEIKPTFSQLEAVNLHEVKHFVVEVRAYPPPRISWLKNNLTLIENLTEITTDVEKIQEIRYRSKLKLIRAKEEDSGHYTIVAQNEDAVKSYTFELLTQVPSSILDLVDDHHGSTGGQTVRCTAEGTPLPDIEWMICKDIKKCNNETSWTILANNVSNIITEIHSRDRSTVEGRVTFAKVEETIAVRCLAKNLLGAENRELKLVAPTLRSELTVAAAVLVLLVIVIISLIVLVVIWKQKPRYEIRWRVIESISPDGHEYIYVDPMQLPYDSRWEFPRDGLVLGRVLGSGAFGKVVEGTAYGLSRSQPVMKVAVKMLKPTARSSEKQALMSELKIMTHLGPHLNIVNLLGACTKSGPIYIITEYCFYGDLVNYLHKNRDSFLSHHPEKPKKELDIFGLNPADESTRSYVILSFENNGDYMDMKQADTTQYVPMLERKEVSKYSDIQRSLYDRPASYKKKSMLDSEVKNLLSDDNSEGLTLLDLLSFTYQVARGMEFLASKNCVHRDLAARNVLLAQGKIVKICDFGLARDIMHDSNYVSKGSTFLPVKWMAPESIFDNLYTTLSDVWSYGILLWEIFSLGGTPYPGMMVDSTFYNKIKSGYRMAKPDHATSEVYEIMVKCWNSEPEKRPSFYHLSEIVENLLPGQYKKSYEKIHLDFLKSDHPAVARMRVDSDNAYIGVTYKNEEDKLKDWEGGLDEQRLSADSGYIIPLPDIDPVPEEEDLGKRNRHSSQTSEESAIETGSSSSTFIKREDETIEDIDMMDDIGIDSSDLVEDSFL

[7] = target: Platelet-derived growth factor receptor beta (Homo sapiens, UniProt P09619); experiment: Inhibition of human PDGFRbeta (557 to end residues) using poly(Glu, Tyr) 4:1 as substrate measured after 40 mins in presence of [gamma33P]ATP by scintillation counting based radiometry assay
Platelet-derived growth factor receptor beta, sequence (P09619 whole entry): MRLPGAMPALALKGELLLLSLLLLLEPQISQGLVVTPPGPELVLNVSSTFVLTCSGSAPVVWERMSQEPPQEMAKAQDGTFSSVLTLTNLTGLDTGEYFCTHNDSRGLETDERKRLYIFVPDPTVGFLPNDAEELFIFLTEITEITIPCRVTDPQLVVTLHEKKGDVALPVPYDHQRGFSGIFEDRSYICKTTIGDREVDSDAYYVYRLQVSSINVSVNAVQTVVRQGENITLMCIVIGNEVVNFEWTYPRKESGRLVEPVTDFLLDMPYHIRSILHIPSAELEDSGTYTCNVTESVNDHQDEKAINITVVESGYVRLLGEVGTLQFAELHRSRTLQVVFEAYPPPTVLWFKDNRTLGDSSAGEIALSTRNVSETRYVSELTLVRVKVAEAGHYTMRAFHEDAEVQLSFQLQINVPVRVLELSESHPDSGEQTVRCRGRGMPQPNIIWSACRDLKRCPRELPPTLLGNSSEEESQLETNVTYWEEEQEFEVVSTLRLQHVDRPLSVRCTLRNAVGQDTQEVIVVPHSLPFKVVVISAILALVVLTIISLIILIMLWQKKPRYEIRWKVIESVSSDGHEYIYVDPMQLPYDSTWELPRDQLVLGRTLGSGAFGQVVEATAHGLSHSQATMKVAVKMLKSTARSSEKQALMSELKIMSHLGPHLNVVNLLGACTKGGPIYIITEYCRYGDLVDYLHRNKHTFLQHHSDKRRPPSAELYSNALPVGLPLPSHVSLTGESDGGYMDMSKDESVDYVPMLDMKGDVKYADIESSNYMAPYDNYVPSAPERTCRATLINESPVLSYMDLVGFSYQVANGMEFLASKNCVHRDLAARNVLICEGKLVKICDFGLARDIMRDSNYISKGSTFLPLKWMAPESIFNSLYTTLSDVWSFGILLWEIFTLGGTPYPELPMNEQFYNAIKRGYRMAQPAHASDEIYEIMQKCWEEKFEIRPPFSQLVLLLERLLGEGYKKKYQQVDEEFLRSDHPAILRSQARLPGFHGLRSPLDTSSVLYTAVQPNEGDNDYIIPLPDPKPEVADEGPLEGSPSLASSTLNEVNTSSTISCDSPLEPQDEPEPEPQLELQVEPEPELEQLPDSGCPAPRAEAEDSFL

[8] = target: Tyrosine-protein kinase ABL1 (Homo sapiens, UniProt P00519); experiment: Inhibition of human recombinant ABL (27 to end residues) using EAIYAAPFAKKK as substrate incubated for 40 mins in presence of [gamma33P-ATP] by radiometric scintillation counting analysis
Tyrosine-protein kinase ABL1, sequence (P00519 whole entry): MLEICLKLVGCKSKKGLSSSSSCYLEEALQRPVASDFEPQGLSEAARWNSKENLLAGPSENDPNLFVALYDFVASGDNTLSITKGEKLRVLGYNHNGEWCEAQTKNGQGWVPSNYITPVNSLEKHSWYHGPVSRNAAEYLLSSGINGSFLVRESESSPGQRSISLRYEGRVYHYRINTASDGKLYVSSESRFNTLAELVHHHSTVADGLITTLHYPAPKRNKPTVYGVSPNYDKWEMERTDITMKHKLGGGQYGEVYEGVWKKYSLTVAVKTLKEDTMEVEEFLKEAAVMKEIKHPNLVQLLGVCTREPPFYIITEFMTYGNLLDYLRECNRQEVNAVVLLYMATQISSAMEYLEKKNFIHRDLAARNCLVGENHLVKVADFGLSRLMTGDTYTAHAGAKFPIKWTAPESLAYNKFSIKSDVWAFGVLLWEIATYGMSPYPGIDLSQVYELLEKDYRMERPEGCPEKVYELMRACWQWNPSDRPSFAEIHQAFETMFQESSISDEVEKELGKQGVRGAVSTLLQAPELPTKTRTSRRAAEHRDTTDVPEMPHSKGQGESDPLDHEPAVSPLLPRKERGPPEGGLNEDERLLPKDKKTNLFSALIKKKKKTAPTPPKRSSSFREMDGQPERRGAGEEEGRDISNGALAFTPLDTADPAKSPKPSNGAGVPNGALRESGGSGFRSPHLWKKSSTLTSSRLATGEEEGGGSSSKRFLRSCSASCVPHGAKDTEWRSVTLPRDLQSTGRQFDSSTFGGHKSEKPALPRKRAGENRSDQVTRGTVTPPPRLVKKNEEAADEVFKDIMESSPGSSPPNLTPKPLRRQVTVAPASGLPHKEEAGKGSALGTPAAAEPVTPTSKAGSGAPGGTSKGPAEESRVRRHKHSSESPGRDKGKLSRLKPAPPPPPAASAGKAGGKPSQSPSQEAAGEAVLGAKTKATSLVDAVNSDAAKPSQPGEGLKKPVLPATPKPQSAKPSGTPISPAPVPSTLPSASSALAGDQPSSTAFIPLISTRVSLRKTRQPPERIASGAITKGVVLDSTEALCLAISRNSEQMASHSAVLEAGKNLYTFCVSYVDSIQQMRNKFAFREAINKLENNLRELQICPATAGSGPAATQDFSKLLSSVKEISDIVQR

[9] = target: Mitogen-activated protein kinase 1 (Homo sapiens, UniProt P28482); experiment: Inhibition of human full length recombinant ERK2 using myelin basic protein as substrate incubated for 40 mins in presence of [gamma33P-ATP] by radiometric scintillation counting analysis
Mitogen-activated protein kinase 1, sequence (P28482 whole entry): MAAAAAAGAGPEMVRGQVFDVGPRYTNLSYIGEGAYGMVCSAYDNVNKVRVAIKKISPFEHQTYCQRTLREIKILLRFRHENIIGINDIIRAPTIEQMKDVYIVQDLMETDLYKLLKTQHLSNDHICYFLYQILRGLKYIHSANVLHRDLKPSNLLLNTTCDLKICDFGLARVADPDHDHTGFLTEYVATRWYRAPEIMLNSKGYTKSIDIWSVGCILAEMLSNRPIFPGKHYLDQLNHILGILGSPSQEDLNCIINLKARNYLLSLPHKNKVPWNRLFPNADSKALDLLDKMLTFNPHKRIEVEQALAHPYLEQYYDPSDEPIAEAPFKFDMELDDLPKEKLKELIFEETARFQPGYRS

[10] = target: T2, Tyrosine-protein kinase receptor UFO (Mus musculus) (UniProt Q00993); experiment: Inhibition of AXL in mouse BaF3/TEL-AXL cells assessed as reduction in phosphorylation of AXL at 1 to 15 nM after 2 hrs by Western blotting analysis; format: cell-based; conditions: dose 1-15 nM
T2 sequence (whole entry): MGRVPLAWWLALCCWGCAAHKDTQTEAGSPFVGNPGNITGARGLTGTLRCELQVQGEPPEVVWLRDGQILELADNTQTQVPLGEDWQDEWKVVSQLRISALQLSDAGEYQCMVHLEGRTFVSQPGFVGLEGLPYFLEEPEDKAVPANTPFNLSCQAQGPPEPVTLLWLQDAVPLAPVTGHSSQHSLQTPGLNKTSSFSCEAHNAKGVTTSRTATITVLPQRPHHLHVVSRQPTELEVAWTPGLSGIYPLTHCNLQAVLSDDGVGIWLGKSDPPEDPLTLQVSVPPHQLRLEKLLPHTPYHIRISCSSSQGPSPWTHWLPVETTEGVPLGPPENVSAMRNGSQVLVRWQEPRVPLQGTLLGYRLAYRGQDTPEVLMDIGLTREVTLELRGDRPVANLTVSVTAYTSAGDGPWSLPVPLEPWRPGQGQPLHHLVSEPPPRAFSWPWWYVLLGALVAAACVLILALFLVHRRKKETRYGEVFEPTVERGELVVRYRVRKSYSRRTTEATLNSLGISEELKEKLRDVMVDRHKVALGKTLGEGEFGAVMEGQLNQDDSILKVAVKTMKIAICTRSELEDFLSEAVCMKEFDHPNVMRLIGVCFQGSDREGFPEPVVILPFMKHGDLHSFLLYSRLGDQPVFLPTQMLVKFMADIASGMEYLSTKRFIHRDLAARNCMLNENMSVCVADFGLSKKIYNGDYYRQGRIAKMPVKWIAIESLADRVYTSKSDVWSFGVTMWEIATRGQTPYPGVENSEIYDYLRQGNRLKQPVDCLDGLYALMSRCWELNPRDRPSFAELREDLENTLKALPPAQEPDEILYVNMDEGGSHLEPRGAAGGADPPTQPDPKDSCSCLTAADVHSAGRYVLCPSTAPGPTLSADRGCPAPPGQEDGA

[11] = target: T2, Tyrosine-protein kinase receptor UFO (Mus musculus); experiment: Inhibition of AXL in mouse BaF3/TEL-AXL cells assessed as reduction in phosphorylation of AKT at 1 to 15 nM after 2 hrs by Western blotting analysis; format: cell-based; conditions: dose 1-15 nM
[12] = target: T1, Hepatocyte growth factor receptor; experiment: Inhibition of MET signaling in human EBC1 cells assessed as reduction in phosphorylation of AKT after 2 hrs by Western blotting analysis; format: cell-based; conditions: EBC-1, dose 10-100 nM
EBC-1 = experiment: Antiproliferative activity against human EBC-1 cells incubated for 72 hrs by SRB or CCK8 assay; format: functional, cell-based; conditions: EBC-1, 72 h
MKN-45 = experiment: Antiproliferative activity against human MKN-45 cells incubated for 72 hrs by SRB or CCK8 assay; format: functional, cell-based; conditions: MKN-45, 72 h
BT-474 = experiment: Antiproliferative activity against human BT-474 cells incubated for 72 hrs by SRB or CCK8 assay; format: functional, cell-based; conditions: BT-474, 72 h
[13] = Antiproliferative activity against human JHH7 cells incubated for 72 hrs by SRB or CCK8 assay; format: functional, cell-based; conditions: JHH7, 72 h
NCI-H1975 = experiment: Antiproliferative activity against human NCI-H1975 cells incubated for 72 hrs by SRB or CCK8 assay; format: functional, cell-based; conditions: NCI-H1975, 72 h
NCI-H1299 [14] = experiment: Antiproliferative activity against human NCI-H1299 cells incubated for 72 hrs by SRB or CCK8 assay; format: functional, cell-based; conditions: NCI-H1299, 72 h
MM1.S = experiment: Antiproliferative activity against human MM1.S cells incubated for 72 hrs by SRB or CCK8 assay; format: functional, cell-based
HL-60 = experiment: Antiproliferative activity against human HL-60 cells incubated for 72 hrs by SRB or CCK8 assay; format: functional, cell-based; conditions: HL-60, 72 h
HCC4006 = experiment: Antiproliferative activity against human HCC4006 cells incubated for 72 hrs by SRB or CCK8 assay; format: functional, cell-based; conditions: HCC4006, 72 h
NCI-H1299 [15] = experiment: Antiproliferative activity against human NCI-H1299 cells at 5 to 125 uM incubated for 72 hrs by SRB or CCK8 assay; format: functional, cell-based; conditions: dose 5-125 µM
SNU-449 = experiment: Antiproliferative activity against human SNU-449 cells at 5 to 125 uM incubated for 72 hrs by SRB or CCK8 assay; format: functional, cell-based; conditions: dose 5-125 µM
BaF3 [16] = experiment: Antitumor activity against mouse BaF3/TEL-AXL cells xenografted in BALB/c nude mouse assessed as tumor growth inhibition at 5 mg/kg, po administered once daily for 14 days by caliper method; format: functional; conditions: 336 h, time 14 day, read-out: TGI
[17] = Toxicity in BALB/c nude mouse assessed as reduction in body weight at 100 mg/kg, po administered once daily for 14 days; format: organism-based; conditions: in vivo, 336 h, time 14 day

Tmax [1]: 1.67 h
IC50 (BaF3 [2]): < 0.005 nM
bioavailability [3]: 114%
IC50 [4]: 0.8 nM
IC50 [5]: > 1000 nM
IC50 [6]: > 1000 nM
IC50 [7]: > 1000 nM
IC50 [8]: > 1000 nM
IC50 [9]: > 1000 nM
inhibition [10]: Active
inhibition [11]: Active
inhibition [12]: Dose-Dependent Effect
IC50 (MKN-45): 107 nM
IC50 (BT-474): > 10000 nM
IC50 (NCI-H1975): > 10000 nM
IC50 (NCI-H1299 [14]): > 10000 nM
IC50 (MM1.S): > 10000 nM
IC50 (HL-60): > 10000 nM
IC50 (HCC4006): > 10000 nM
SMILES: CC(C)n1cc(C(=O)Nc2ccc(Oc3ccnc(NC(=O)C4CC4)c3)c(F)c2)c(=O)n(-c2ccc(F)cc2)c1=O
IC50 (EBC-1): 64 nM
IC50 [13]: > 10000 nM
Activity (NCI-H1299 [15]): inactive
Activity (SNU-449): inactive
inhibition in vivo at 5 mg/kg (BaF3 [16]): 106%
Activity [17]: Non-Toxic
